In patent US6887896B1, “7-[(7-Alkoxy)-chrom-3-en-6-yl]-heptatrienoic acid and 7-[(3-alkoxy)-5,6-dihydronaphthalen-2-yl]-heptatrienoic acid derivatives having serum glucose reducing activity” (Allergan, Inc., priority 2003, dated 2005):

Columns and labels:
RARα = molecular target: T1, RARα (Homo sapiens, UniProt P10276); experiment: chimeric receptor transactivation assay, RARα; assay type: cell-based; details: for EC50: chimeric receptor transactivation, read-out: RAR Trans. EC50 α; for Emax: percentage compared to the standard compound, read-out: RAR Trans. efficacy (number in parentheses) α
T1 sequence (P10276 183-417 limits assumed): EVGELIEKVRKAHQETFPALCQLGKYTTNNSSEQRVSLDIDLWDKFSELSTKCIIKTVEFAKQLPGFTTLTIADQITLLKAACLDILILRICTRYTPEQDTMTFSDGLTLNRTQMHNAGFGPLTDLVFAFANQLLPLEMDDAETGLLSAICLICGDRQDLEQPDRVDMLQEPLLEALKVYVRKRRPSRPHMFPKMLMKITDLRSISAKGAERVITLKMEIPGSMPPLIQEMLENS
Source text: (§1) Specifically, one such assay is a chimeric receptor transactivation assay which tests for agonist-like activity in the R RAPE and RAR7 receptor subtypes, and which is based on work published by Feigner, P. L. and Holm, M (1989) Focus, 112 is described in detail in U.S. Pat. No. 5,455,265. The specification of U.S. Pat. No. 5,455,265 is hereby expressly incorporated by reference. A holoreceptor transactivation assay and a ligand binding assay which measure the antagonist/agonist like activity of the compounds of the invention, or their ability to bind to the several retinoid receptor subtypes, respectively, are described in published PCT Application No. WO WO93/11755 (particularly on pages 30-33 and 37-41) published on Jun. 24, 1993, the specification of which is also incorporated herein by reference. A detailed experimental procedure for holoreceptor transactivations has been described by Heyman et al. Cell 68, 397-406, (1992); Allegretto et al. J. Biol. Chem. 268, 26625-26633, and Mangelsdorf et al. The Retinoids: Biology, Chemistry and Medicine, pp 319-349, Raven Press Ltd., New York, which are expressly incorporated herein by reference. The results obtained in this assay are expressed in EC50 numbers, as they are also in the chimeric receptor transactivation assay. The results of the ligand binding assay are expressed in Ki numbers. (See Cheng et al. Biochemical Pharmacology Vol. 22 pp 3099-3108, expressly incorporated herein by reference.)
(§2) Efficacy in a transactivation assay is expressed as a percentage of the maximum potency attained by the compound compared to a standard which, in this case, is the compound named (2E,4E,1′S,2′S)-3-methyl-5-[2′-methyl-2′-(5,5,8,8-tetramethyl-5,6,7,8-tetrahydro-naphthalen-2-yl)-cyclopropyl]-penta-2,4-dienoic acid. This standard compound is described in U.S. Pat. No. 6,114,533.
(§3) The specification of this application for patent is organized in several sections in accordance with structural Formulas A through F each of which discloses a group of preferred compounds within the scope of the invention. Tables that disclose the activity of certain exemplary compounds of the invention in the above-described RXR receptor transactivation and binding assays are found in the corresponding sections. […] The transactivation data pertaining to the activation of RXR receptors were obtained in the holoreceptor assay.
(§4) Generally speaking, in the tables disclosing the results of transactivation and binding assays the numbers in parentheses indicate efficacy as a percentage compared to the standard compound, (2E,4E,1′S,2′S)-3-methyl-5-[2′-methyl-2′-(5,5,8,8-tetramethyl-5,6,7,8-tetrahydro-naphthalen-2-yl)cyclopropyl]-penta-2,4-dienoic acid and the other numbers indicate the measured EC50 and K; in nanomolar concentration.

RXRγ [1] = molecular target: T2, RXRγ (UniProt P28705); experiment: holoreceptor transactivation assay, RXRγ; assay type: cell-based; details: for EC50: holoreceptor transactivation, read-out: RXR Trans. EC50 γ; for RXR Trans. efficacy (number in parentheses) γ: percentage compared to the standard compound
T2 sequence (P28705 1-463): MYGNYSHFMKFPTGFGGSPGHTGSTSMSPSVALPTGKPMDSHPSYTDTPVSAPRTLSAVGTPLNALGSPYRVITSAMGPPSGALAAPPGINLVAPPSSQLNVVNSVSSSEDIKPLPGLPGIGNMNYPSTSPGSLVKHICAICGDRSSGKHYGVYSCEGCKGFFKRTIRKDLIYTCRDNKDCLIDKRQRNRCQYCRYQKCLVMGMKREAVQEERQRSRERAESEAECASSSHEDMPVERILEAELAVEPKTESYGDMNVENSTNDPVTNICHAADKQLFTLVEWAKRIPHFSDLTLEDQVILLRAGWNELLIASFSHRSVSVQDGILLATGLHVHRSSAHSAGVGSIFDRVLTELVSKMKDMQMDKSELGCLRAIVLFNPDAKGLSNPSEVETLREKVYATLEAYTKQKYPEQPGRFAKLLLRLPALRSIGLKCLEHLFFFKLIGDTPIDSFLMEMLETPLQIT
Source text: as §1, §2, §3, §4

ob/ob mice [2] = experiment: serum glucose, triglycerides and T4 in ob/ob mice, drug mixed in control diet over 7 days; assay type: in vivo; details: 30 mg/kg per day in diet; for Glucose Day 0 / Triglycerides Day 0: day 0 (pre-treatment)
RXRγ [3] = molecular target: T2, RXRγ; experiment: ligand binding assay, RXRγ; details: for Kd: Table 9 (Formula F), read-out: RXR γ Kd
Source text: as §1, §4

ob/ob mice [4] = experiment: serum glucose, triglycerides and T4 in diabetic mice, oral gavage in corn oil daily for seven days; assay type: in vivo; details: 80 mg/kg, corn oil vehicle (second Table 9)

EC50 (RARα) | Emax (RARα) | EC50 (RXRγ [1]) | RXR Trans. efficacy (number in parentheses) γ (RXRγ [1]) | Kd (RXRγ [3]) | Structure (SMILES) | further results
29 nM | 10% | 4 nM | 11% |  | CCOc1cc2c(cc1\C(CC)=C(F)/C=C/C(C)=C/C(=O)O)C(CC)=CCC2(C)C [Compound A-78, (2E,4E,6E)-7-(3-Ethoxy-8-ethyl-5,5-dimethyl-5,6-dihydro-naphthalen-2-yl)-6-fluoro-3-methyl-nona-2,4,6-trienoic acid] | 
 |  | 2 nM | 59% |  | CCOc1cc2c(cc1\C(C)=C(F)/C=C/C(C)=C/C(=O)O)C(C(C)C)=CCC2(C)C [Compound A-79, (2E,4E,6E)-6-Fluoro-3-(4,4-dimethylethoxy-1-isopropyl-3,4-dihydronaphthalen-7-yl)-3-methyl-2.4,6-octa-trienoic acid] | Ki (RXRγ [3]; read-out: RXR Bind Ki γ): 88 nM
 |  | 0.4 nM | 53% | 29 nM | CCOc1c(\C(CC)=C(F)/C=C/C(C)=C/C(=O)O)cc2c(c1Br)C(C)(C)CC=C2C(C)C [Compound A-170, (2E,4E,6E)-7-(4-Bromo-3-ethoxy-8-isopropyl-5,5-dimethyl-5,6-dihydro-naphthalen-2-yl)-6-fluoro-3-methyl-nona-2,4,6-trienoic acid] | Glucose Day 3, 3 h (ob/ob mice [4]): 294 mg/dL; Glucose Day 6, 3 h (ob/ob mice [4]): 255 mg/dL; T4 Day 7 (ob/ob mice [4]): 2.7 µg/dL; Triglycerides Day 3, 3 h (ob/ob mice [4]): 195 mg/dL; Glucose Day 0 (ob/ob mice [4]; day 0 (pre-treatment)): 423 mg/dL; Triglycerides Day 0 (ob/ob mice [4]; day 0 (pre-treatment)): 168 mg/dL
3 nM | 13% | 2 nM | 16% | 112 nM | CCOc1c(\C(=C(F)/C=C/C(C)=C/C(=O)O)C(C)C)cc2c(c1Br)C(C)(C)CC=C2C(C)C [Compound A-171, (2E,4E,6E)-7-(4-Bromo-3-ethoxy-8-isopropyl-5,5-dimethyl-5,6-dihydro-naphthalen-2-yl)-6-fluoro-3.8-dimethyl-nona-2.4,6-trienoic acid] | 
 |  | 18 nM | 12% | 221 nM | CC(/C=C/C(F)=C(/C)c1cc2c(c(Br)c1OC(C)C)C(C)(C)CC=C2C(C)C)=C\C(=O)O [Compound A-172, (2E,4E,6E)-7-(4-Bromo-3-isopropoxy-8-isopropyl-5,5-dimethyl-5,6-dihydro-naphthalen-2-yl)-6-fluoro-3-methyl-octa-2,4,6-trienoic acid] | 
 |  | 2 nM | 12% | 34 nM | CCOc1c(\C(C)=C(F)/C=C/C(C)=C/C(=O)O)cc2c(c1Br)C(C)(C)CC=C2C(C)(C)C [Compound A-174, (2E,4E,6E)-7-(4-Bromo-8-tert-butyl-3-ethoxy-5,5-dimethyl-5,6-dihydro-naphthalen-2-yl)-6-fluoro-3-methyl-octa-2,4,6-trienoic acid] | 
 |  | 3 nM | 53% | 122 nM | CCOc1c(\C(CC)=C(F)/C=C/C(C)=C/C(=O)O)cc2c(c1Br)C(C)(C)CC=C2C(C)CC (stereo not drawn) [Compound A-176, (2E,4E,6E)-7-(4-Bromo-8-sec-butyl-3-ethoxy-5,5-methyl-5,6-dihydro-naphthalen-2-yl)-6-fluoro-3-methyl-nona-2,4,6-trienoic acid] | 

Further lines, the compound ahead of its results:

Structure (SMILES) | EC50 (RARα) | Emax (RARα) | EC50 (RXRγ [1]) | RXR Trans. efficacy (number in parentheses) γ (RXRγ [1]) | Kd (RXRγ [3]) | further results
COc1cc2c(cc1\C(C)=C/C=C/C(C)=C/C(=O)O)C(C(C)C)=CC(C)(C)O2 [Compound 43, 7-(4-Isopropyl-7-methoxy-2,2-dimethyl-2H-chromen-6-yl)-3-methyl-octa-2E,4E,6Z-trienoic acid] | 13 nM | 5% | 3 nM | 95% |  | 
CCOc1cc2c(cc1\C(C)=C/C=C/C(C)=C/C(=O)O)C(CC)=CC(C)(C)O2 [Compound 45, 7-(7-Ethoxy-4-ethyl-2,2-dimethyl-2H-chromen-6-yl)-3-methyl-octa-2E,4E,6Z-trienoic acid] | 121 nM | 6% |  |  |  | 
CCOc1c(\C(C)=C/C=C/C(C)=C/C(=O)O)cc2c(c1Cl)OC(C)(C)C=C2C(C)C [Compound 50, 7-(8-Chloro-4-isopropyl-7-ethoxy-2,2-dimethyl-2H-chromen-6-yl)-3-methyl-octa-2E,4E,6Z-trienoic acid] |  |  | 5 nM | 47% |  | Glucose Day 3, 3 h (ob/ob mice [2]): 209 mg/dL; Glucose Day 6, 3 h (ob/ob mice [2]): 237 mg/dL; T4 Day 7 (ob/ob mice [2]): 4.5 µg/dL; Triglycerides Day 3, 3 h (ob/ob mice [2]): 90 ± 33 mg/dL; Glucose Day 0 (ob/ob mice [2]): 288 mg/dL; Triglycerides Day 0 (ob/ob mice [2]): 122 mg/dL
CCOc1cc2c(cc1\C(C)=C(F)/C=C/C(C)=C/C(=O)O)C(c1ccccc1)=CC(C)(C)O2 [Compound 127, (2E,4E,6E)-7-(7-Ethoxy-2,2-dimethyl-4-phenyl-2H-chromen-6-yl)-6-fluoro-3-methyl-octa-2,4,6-trienoic acid] | 245 nM | 26% |  |  |  | 
CCCOc1cc2c(cc1\C(C)=C(F)/C=C/C(C)=C/C(=O)O)C(c1ccccc1)=CC(C)(C)O2 [Compound 128, (2E,4E,6E)-7-(2,2-Dimethyl-4-phenyl-7-propoxy-2H-chromen-6-yl)-6-fluoro-3-methyl-octa-2,4,6-trienoic acid] | 14 nM | 25% |  |  |  | 
CC/C(=C(F)/C=C/C(C)=C/C(=O)O)c1cc2c(cc1OC)OC(C)(C)C=C2C [Compound 129, 6-Fluoro-7-(7-methoxy-2,2,4-trimethyl-2H-chromen-6-yl)-3-methyl-nona-2E,4E,6E-trienoic acid] | > 10000 nM |  | 53 nM | 108% |  | 
CC/C(=C(F)/C=C/C(C)=C/C(=O)O)c1cc2c(cc1OC)OC(C)(C)C=C2C(C)C [Compound 130, 6-Fluoro-7-(4-isopropyl-7-methoxy-2,2-dimethyl-2H-chromen-6-yl)-3-methyl-nona-2E,4E,6E-trienoic acid] | 218 nM | 8% | 0.6 nM | 86% |  | 
CC/C(=C(F)/C=C/C(C)=C/C(=O)O)c1cc2c(c(Cl)c1OC)OC(C)(C)C=C2C(C)C [Compound 171, 7-(8-Chloro-4-isopropyl-7-methoxy-2,2-dimethyl-2H-chromen-6-yl)-6-fluoro-3-methyl-nona-2E,4E,6E-trienoic acid] | > 1000 nM |  | 0.04 nM | 95% |  | 
CCOc1c(\C(C)=C(F)/C=C/C(C)=C/C(=O)O)cc2c(c1Cl)OC(C)(C)C=C2C(C)C [Compound 172, 7-(8-Chloro-4-isopropyl-7-ethoxy-2,2-dimethyl-2H-chromen-6-yl)-6-fluoro-3-methyl-octa-2E,4E,6E-trienoic acid] |  |  | 10 nM | 46% |  | Glucose Day 3, 3 h (ob/ob mice [2]): 193 mg/dL; Glucose Day 6, 3 h (ob/ob mice [2]): 206 mg/dL; T4 Day 7 (ob/ob mice [2]): 4.5 µg/dL; Triglycerides Day 3, 3 h (ob/ob mice [2]): 68 ± 22 mg/dL; Glucose Day 0 (ob/ob mice [2]): 292 mg/dL; Triglycerides Day 0 (ob/ob mice [2]): 107 mg/dL
